From patent publication US20250332173A1, “COMPOUNDS AND METHODS FOR MODULATING NUCLEIC ACID SPLICING” (REMIX THERAPEUTICS INC., priority 2021, published 2025) come the findings set out here.

Type in all cases: cell-based, human
For test [1], the system named is Target C. As to the kind of experiment: RT-qPCR splicing assay panel, Target C canonical junction (CJ) mRNA. As to conditions: Homo sapiens; Table 5 panel; canonical junction qPCR; compound concentration having 50% response in CJ decrease; read-out: Target C IC50 (decrease in CJ mRNA levels). The method in brief: (§1)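 Canonical exon-exon junction transcript levels measured by one-step RT-qPCR of cell lysates, normalized to a housekeeping gene (GAPDH, GUSB or PPIA). Cells used were A673 or K562, exposed for 24 h to compound in 11-point, 3-fold series from 10 uM, with final DMSO at or below 0.25%.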
(In qPCR the cycle at which signal appears reflects the starting amount.)

Another test deals with SMN2 mRNA. As to the kind of experiment: RT-qPCR splicing assay, SMN2 canonical junction (CJ) mRNA. As to conditions: Homo sapiens; Table 5 panel; canonical junction qPCR; compound concentration having 50% response in CJ decrease; read-out: SMN2 IC50 (decrease in CJ mRNA levels). The method in brief:
as §1

Test [2] deals with Target C. The test is described as follows: HiBiT protein abundance assay, Target C (Promega Nano-Glo HiBiT Lytic Detection System, knock-in K562 cell line). The following applies: Homo sapiens, K562, 24 h, HiBiT K562 cell line, 24 hours, top dose 10 μM; read-out: Effect on protein abundance, Target C (IC50 category). The method in brief:
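Protein abundance was read by Nano-Glo HiBiT lytic luminescence after 24 h compound exposure (10-point, threefold series from 10 μM final) of HiBiT knock-in K562 cells. Parental K562 served as baseline; the 50%-abundance concentration was interpolated from a four-parameter logistic fit.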
Background: With HiBiT, luminescence reflects the tagged protein that the partner subunit can reach.

SMILES strings stand for the structures.

One may read the IC50 as the concentration that gives 50% inhibition. Regarding `Cc1cn2cc(-c3ccc4c(=O)n([C@H]5CCNC5)cc(C)c4c3)cc(C#N)c2n1` [Compound 456, (S)-2-methyl-6-(4-methyl-1-oxo-2-(pyrrolidin-3-yl)-1,2-dihydroisoquinolin-6-yl)imidazo[1,2-a]pyridine-8-carbonitrile], the IC50 in the test on Target C [1] is greater than 10 µM; in the test with SMN2 mRNA, 1 to 10 µM; with Target C [2], greater than 10 µM.
On to `Cc1cn2cc(-c3cc(F)c4c(=O)n(C5CCNCC5)cc(C)c4c3)cc(F)c2n1` [Compound 461, 8-fluoro-6-{8-fluoro-2-methylimidazo[1,2-a]pyridin-6-yl}-4-methyl-2-(piperidin-4-yl)isoquinolin-1-one], for which the IC50 in the test on Target C [1] was 0.1 to 1 µM; in the test on SMN2 mRNA, less than 0.1 µM; with Target C [2], 0.1 to 1 µM.
Regarding `Cc1cn2nc(-c3cc(O)c4c(=O)n(C5CCNC5)cc(C)c4c3)cc(C)c2n1` (stereo not drawn) [Compound 462], the IC50 in the test on Target C [1] was greater than 10 µM; with SMN2 mRNA, 0.1 to 1 µM; in the test with Target C [2] it was 1 to 10 µM.
In the case of `Cn1cc2c(n1)CCN(c1ccc3c(=O)n(C4CCNCC4)ccc3c1)C2` [Compound 509, 6-{2-methyl-4H,6H,7H-pyrazolo[4,3-c]pyridin-5-yl}-2-(piperidin-4-yl)isoquinolin-1-one], the IC50 in the test with Target C [1] was greater than 10 µM; with SMN2 mRNA it was 1 to 10 µM; with Target C [2] it was greater than 10 µM.
As to `Cc1cn2cc(-c3ccc4c(=O)n(C5CCNC6(CC6)C5)ncc4c3)cc(Cl)c2n1` (stereo not drawn) [Compound 510], the values for the IC50 with Target C [1], in the test with SMN2 mRNA and with Target C [2] were 1 to 10 µM, less than 0.1 µM and 1 to 10 µM, respectively.
`Cn1cc2nc(-c3ccc4c(=O)n(C5CCNC6(CC6)C5)ncc4c3)ccc2n1` (stereo not drawn) [Compound 511]: the values for the IC50 in the test on Target C [1], in the test on SMN2 mRNA and in the test on Target C [2] were 1 to 10 µM, less than 0.1 µM and 0.1 to 1 µM, respectively.
